Results reported in patent US20090253692A1, “CRYSTALLINE FORM OF N-[[4-FLUORO-2-(5-METHYL-1H-1,2,4-TRIAZOL-1-YL)PHENYL]METHYL]-4,6,7,9-TETRAHYDRO-3-HYDROXY-9,9-DIMETHYL-4-OXO-PYRIMIDO[2,1-C][1,4]OXAZINE-2-CARBOXAMIDE, SODIUM SALT MONOHYDRATE” (Bristol-Myers Squibb Company, priority 2008, published 2009).
Entries after “also recorded” stand apart in the source; their conditions may differ. Read-outs that look alike come from different tables or passages of the source.

What was measured:
[1] = Particle size analysis using an Aerosizer instrument; type: physicochemical
[2] = Dust hazard analysis: ignition sensitivity of dust cloud; type: physicochemical; settings: for Susceptibility to ignition as a dust cloud: result in words
Text: (§1) “μm” means micrometer. “gm” means gram. “cc” means cubic centimeter. “gm/cc” means gram per cubic centimeter. “Kst” is the deflagration index of a dust expressed in bar-meter per second. “bar-m/s” means bar meter per sec. “bar/s” means bar per second. “mJ” means millijoules. “St” is the geneal classification designation for explosible dusts: “St-2” is classified as a strong explosion designation and has Kst>200 bar-m/sec; “St-1” is not classified as a strong explosion and has Kst<200 bar-m/sec.
(§2) Twenty liter sphere testing (see Proust, C.; Accorsi, A.; Dupont, L. Journal of Loss prevention in the Process Industries, vol. 20, 2007.) places the sample in the St-2 (strong explosion) class with a Kst value of 238 bar-m/s.
(§3) Therefore, twenty liter sphere testing was not required.

[3] = Dust hazard analysis: explosion severity (twenty liter sphere testing), Kst and St classification; type: physicochemical; settings: for Explosion Severity (Max Pressure) / Explosion Severity (Max rate): dust explosion risk; for St Classification: general classification designation for explosible dusts
Text: as §1, §2, §3

HIV integrase = HIV integrase (Human immunodeficiency virus type 1 group M subtype B, UniProt P04585); settings: result in words, see U.S. Pat. No. 7,176,196, sodium salt monohydrate, cited from earlier work
[4] = Dust hazard analysis: charge decay time estimation; type: physicochemical
[5] = Moisture content by weight loss in vacuum oven; type: physicochemical; settings: 5 gm in a vacuum oven at 60° C. for six hours
Protocol: Particle analysis. […] The sample was checked for moisture content by placing 5 gm in a vacuum oven at 60° C. for six hours and checking weight loss. The free acid lost 0.22% of its initial weight. […] The sample was checked for moisture content by placing 5 gm in a vacuum oven at 60° C. for six hours and checking weight loss. The salt monohydrate lost 0.18% of its initial weight.

Bulk and true densities = type: physicochemical

Cc1ncnn1-c1cc(F)ccc1CNC(=O)c1nc2n(c(=O)c1[O-])CCOC2(C)C.[Na+] [Compound (I), N-[[4-fluoro-2-(5-methyl-1H-1,2,4-triazol-1-yl)phenyl]methyl]-4,6,7,9-tetrahydro-3-hydroxy-9,9-dimethyl-4-oxo-pyrimido[2,1-c][1,4]oxazine-2-carboxamide, sodium salt monohydrate]
Particle size, 95% of sample below [1]: < 33.6 μm | Particle size, mean value [1]: 14.8 μm | Minimum Ignition Energy ([2]; dust explosion risk): >500 mJ | Minimum Ignition Temperature ([2]; dust explosion risk): >600 °C | Susceptibility to ignition as a dust cloud [2]: low susceptibility to ignition as a dust cloud | Explosion Severity (Max Pressure) [3]: 1.5 bar | Explosion Severity (Max rate) [3]: 154 bar/s | St Classification [3]: St-1 (“St-1” is not classified as a strong explosion and has Kst<200 bar-m/sec) | Explosion characteristics ([3]; result in words): weak to moderate explosion characteristics | Binding to and antagonism / inhibition of HIV integrase (HIV integrase; listed as Compound I): demonstrated inhibition of HIV integrase | Binding to and antagonism / inhibition of HIV integrase (HIV integrase): potently bind to and act as an antagonist to HIV integrase | Charge Decay Time Estimation [4]: 33 min | Moisture content: loss of initial weight [5]: 0.18% | Bulk density (Bulk and true densities): 0.42 gm/cc | True density (Bulk and true densities): 1.53 gm/cc

Cc1ncnn1-c1cc(F)ccc1CNC(=O)c1nc2n(c(=O)c1O)CCOC2(C)C [Free acid]
Particle size, 95% of sample below [1]: < 32.9 μm | Particle size, mean value [1]: 16.3 μm | Susceptibility to ignition as a dust cloud [2]: extremely susceptible to igniting as a dust cloud; also recorded: high susceptibility to ignition and risk for explosion | Kst value ([3]; deflagration index of a dust): 238 bar · m/s | Explosion Severity (Max Pressure) [3]: 8.2 bar | Explosion Severity (Max rate) [3]: 878 bar/s | St Classification [3]: St-2 (“St-2” is classified as a strong explosion designation and has Kst>200 bar-m/sec) | Kst value ([3]; twenty liter sphere testing): 238 bar-m/s | Charge Decay Time Estimation [4]: 330 min | Moisture content: loss of initial weight [5]: 0.22% | Bulk density (Bulk and true densities): 0.34 gm/cc | True density (Bulk and true densities): 1.40 gm/cc
